Experimental data reported in ChEMBL document CHEMBL6153048, “Synthesis and pharmacological evaluation of natural product diphyllin derivatives against head and neck squamous cell carcinoma” (Eur J Med Chem, 2025).
Each block holds one compound with its values, some of them ahead of it. Active and inactive are the calls of the source. The rule behind the calls is not given here.

Columns and labels:
CAL-27 [1] = test: Inhibition of cell migration in human CAL-27 cells at 1 to 1000 nM incubated for 24 hrs by wound healing assay; format: functional, cell-based; conditions: dose 1-1000 nM
Homo sapiens [2] = organism: Homo sapiens; test: Inhibition of V-ATPase activity in lysosome of human CAL-27 cells using Lyso-Tracker Red as fluorescent probe assessed as decrease in fluorescence intensity at 0.5 uM incubated for 24 hrs by flow cytometry analysis
Homo sapiens [3] = organism: Homo sapiens; test: Inhibition of V-ATPase activity in lysosome of human CAL-27 cells using Lyso-Tracker Red as fluorescent probe assessed as decrease in fluorescence intensity at 0.25 uM incubated for 24 hrs by flow cytometry analysis
CAL-27 [4] = test: Induction of cell cycle arrest in human CAL-27 cells assessed as downregulation of CDK4 expression incubated for 24 hrs by Western blotting analysis; format: functional, cell-based; conditions: dose 1-1000 nM
CAL-27 [5] = test: Antiproliferative activity against human CAL-27 cells assessed as inhibition rate at 0.1 uM incubated for 72 hrs by MTT assay relative to control; format: functional
[6] = Antiproliferative activity against human HN-6 cells assessed as inhibition rate at 0.1 uM incubated for 72 hrs by MTT assay relative to control; format: functional
[7] = Antiproliferative activity against human WSU HN-30 cells assessed as inhibition rate at 0.1 uM incubated for 72 hrs by MTT assay relative to control; format: functional; conditions: WSU-HN30
SCC-9 [8] = test: Antiproliferative activity against human SCC-9 cells assessed as inhibition rate at 0.1 uM incubated for 72 hrs by MTT assay relative to control; format: functional
SCC-25 [9] = test: Antiproliferative activity against human SCC-25 cells assessed as inhibition rate at 0.1 uM incubated for 72 hrs by MTT assay relative to control; format: functional
[10] = Antiproliferative activity against human L02 cells assessed as inhibition rate at 0.1 uM incubated for 72 hrs by MTT assay relative to control; format: toxicity, cell-based
CAL-27 [11] = test: Cytotoxicity against human CAL-27 cells incubated for 72 hrs by MTT assay; format: functional, cell-based; conditions: CAL-27, 72 h
[12] = Cytotoxicity against human HN-6 cells incubated for 72 hrs by MTT assay; format: functional, cell-based; conditions: HN-6, 72 h
[13] = Cytotoxicity against human […] incubated for 72 hrs by MTT assay; format: functional, cell-based; conditions: WSU-HN30, 72 h
SCC-9 [14] = test: Cytotoxicity against human SCC-9 cells incubated for 72 hrs by MTT assay; format: functional, cell-based; conditions: SCC-9, 72 h
SCC-25 [15] = test: Cytotoxicity against human SCC-25 cells incubated for 72 hrs by MTT assay; format: functional, cell-based; conditions: SCC-25, 72 h
[16] = Cytotoxicity against human L02 cells incubated for 72 hrs by MTT assay; format: toxicity, cell-based
MDA-MB-231 = test: Cytotoxicity against human MDA-MB-231 cells incubated for 72 hrs by MTT assay; format: functional, cell-based; conditions: MDA-MB-231, 72 h
SK-BR-3 = test: Cytotoxicity against human SK-BR-3 cells incubated for 72 hrs by MTT assay; format: functional, cell-based; conditions: SK-BR-3, 72 h
K562 = test: Cytotoxicity against human K562 cells incubated for 72 hrs by MTT assay; format: functional, cell-based; conditions: K562, 72 h
Jurkat = test: Cytotoxicity against human Jurkat cells incubated for 72 hrs by MTT assay; format: functional, cell-based
KYSE-510 = test: Cytotoxicity against human KYSE-510 cells incubated for 72 hrs by MTT assay; format: functional, cell-based; conditions: KYSE-510, 72 h
PANC-1 = test: Cytotoxicity against human PANC-1 cells incubated for 72 hrs by MTT assay; format: functional, cell-based; conditions: PANC-1, 72 h
ASPC1 = test: Cytotoxicity against human ASPC1 cells incubated for 72 hrs by MTT assay; format: functional, cell-based; conditions: ASPC1, 72 h
HepG2 = test: Cytotoxicity against human HepG2 cells incubated for 72 hrs by MTT assay; format: functional, cell-based; conditions: HepG2, 72 h
SNU-449 = test: Cytotoxicity against human SNU-449 cells incubated for 72 hrs by MTT assay; format: functional, cell-based; conditions: SNU-449, 72 h
SNU-182 = test: Cytotoxicity against human SNU-182 cells incubated for 72 hrs by MTT assay; format: functional, cell-based; conditions: SNU-182, 72 h
[17] = Cytotoxicity against human NCI-H322 cells incubated for 72 hrs by MTT assay; format: functional, cell-based; conditions: NCI-H322, 72 h
CAL-27 [18] = test: Antiproliferative activity against human CAL-27 cells assessed as inhibition of cell communities at 10 uM treated for 11 days by plate clone formation assay; format: functional, cell-based; conditions: time 11.0 day
CAL-27 [19] = test: Induction of cell cycle arrest in human CAL-27 cells assessed as downregulation of cyclin D1 expression incubated for 24 hrs by Western blotting analysis; format: functional, cell-based; conditions: dose 1-1000 nM
CAL-27 [20] = test: Induction of apoptosis in human CAL-27 cells assessed as necrotic cells at 1 nM incubated for 72 hrs by Annexin V-FITC/propidium iodide staining based flow cytometry analysis (reference value: 0.03%); format: functional
CAL-27 [21] = test: Induction of apoptosis in human CAL-27 cells assessed as necrotic cells at 10 nM incubated for 72 hrs by Annexin V-FITC/propidium iodide staining based flow cytometry analysis (reference value: 0.03%); format: functional
CAL-27 [22] = test: Induction of apoptosis in human CAL-27 cells assessed as necrotic cells at 100 nM incubated for 72 hrs by Annexin V-FITC/propidium iodide staining based flow cytometry analysis (reference value: 0.03%); format: functional
CAL-27 [23] = test: Induction of apoptosis in human CAL-27 cells assessed as necrotic cells at 1000 nM incubated for 72 hrs by Annexin V-FITC/propidium iodide staining based flow cytometry analysis (reference value: 0.03%); format: functional
[24] = Half life in ICR mouse at 1 mg/kg, iv measured upto 24 hrs by LC-MS/MS analysis; format: ADME, organism-based; conditions: in vivo
[25] = Cmax in ICR mouse at 1 mg/kg, iv measured upto 24 hrs by LC-MS/MS analysis; format: ADME, organism-based; conditions: in vivo
[26] = AUC (0 to t) in ICR mouse at 1 mg/kg, iv measured upto 24 hrs by LC-MS/MS analysis; format: ADME, organism-based; conditions: in vivo
[27] = Plasma clearance in ICR mouse at 1 mg/kg, iv measured upto 24 hrs by LC-MS/MS analysis; format: ADME, organism-based
[28] = Cmax in ICR mouse at 3 mg/kg, po measured upto 24 hrs by LC-MS/MS analysis; format: ADME, organism-based; conditions: in vivo
[29] = AUC (0 to t) in ICR mouse at 3 mg/kg, po measured upto 24 hrs by LC-MS/MS analysis; format: ADME, organism-based; conditions: in vivo
[30] = Oral bioavailability in ICR mouse at 3 mg/kg measured upto 24 hrs by LC-MS/MS analysis; format: ADME, organism-based; conditions: in vivo
CAL-27 [31] = test: Antitumor activity against human CAL-27 cells xenografted in BALB/c mouse model assessed as tumor volume change at 0.6 mg/kg, iv treated four times a week for 30 days; format: functional; conditions: CAL-27, 720 h, time 30 day, read-out: TGI
CAL-27 [32] = test: Antitumor activity against human CAL-27 cells xenografted in BALB/c mouse model assessed as reduction in tumor weight at 0.6 mg/kg, iv treated four times a week for 30 days; format: functional; design: scale not given: the % may be the effect or the level left; conditions: time 30 day
CAL-27 [33] = test: Effect on cell cycle in human CAL-27 cells assessed as regulation of gene expression at 1 nM incubated for 48 hrs by GSEA analysis; format: functional, cell-based

Activity (Homo sapiens [2]): inactive
Activity (Homo sapiens [3]): inactive
half-life [24]: 6.48 min
Cmax [25]: 160 ng/mL
AUC(0-t) at 24 h [26]: 43.6 ng·h/mL
clearance [27]: 409 mL/min/kg
Cmax [28]: 11.9 ng/mL
AUC(0-t) at 24 h [29]: 3.56 ng·h/mL
bioavailability [30]: 2.7%
SMILES: COc1cc2c(O)c3c(c(-c4ccc5c(c4)OCO5)c2cc1OC)C(=O)OC3 [DIPHYLLIN]
inhibition (CAL-27 [1]): Active
Activity (CAL-27 [4]): Dose-dependent-effect
inhibition at 0.1 µM (CAL-27 [5]): 13.7%
inhibition at 0.1 µM [6]: 30.8%
inhibition at 0.1 µM [7]: 9.52%
inhibition at 0.1 µM (SCC-9 [8]): 16.6%
inhibition at 0.1 µM (SCC-25 [9]): 23.3%
inhibition at 72 h, 0.1 µM [10]: 7.61%
IC50 (CAL-27 [11]): 2000 nM
IC50 [12]: 2210 nM
IC50 [13]: 1370 nM
IC50 (SCC-9 [14]): 1350 nM
IC50 (SCC-25 [15]): 2390 nM
IC50 at 72 h [16]: > 10000 nM
IC50 (MDA-MB-231): > 10000 nM
IC50 (SK-BR-3): > 10000 nM
IC50 (K562): 343 nM
IC50 (Jurkat): 1660 nM
IC50 (KYSE-510): 2040 nM
IC50 (PANC-1): > 10000 nM
IC50 (ASPC1): > 10000 nM
IC50 (HepG2): > 10000 nM
IC50 (SNU-449): > 10000 nM
IC50 (SNU-182): > 10000 nM
IC50 [17]: > 10000 nM
Activity (CAL-27 [18]): Active
Activity (CAL-27 [19]): Dose-dependent-effect
Activity (CAL-27 [20]): 0.14%
Activity (CAL-27 [21]): 0.07%
Activity (CAL-27 [22]): 0.08%
Activity (CAL-27 [23]): 0.09%
inhibition in vivo at 0.6 mg/kg (CAL-27 [31]): 42.2%
Activity (CAL-27 [32]): 33.3%

Activity (Homo sapiens [2]): Active
Activity (Homo sapiens [3]): Active
half-life [24]: 31.8 min
Cmax [25]: 609 ng/mL
AUC(0-t) at 24 h [26]: 541 ng·h/mL
clearance [27]: 31.6 mL/min/kg
Cmax [28]: 306 ng/mL
AUC(0-t) at 24 h [29]: 338 ng·h/mL
bioavailability [30]: 20.9%
SMILES: COc1cc2c(O[C@@H]3O[C@@H]4CO[C@@H](c5ccsc5)O[C@H]4[C@H](O)[C@H]3O)c3c(c(-c4ccc5c(c4)OCO5)c2cc1OC)C(=O)OC3
inhibition (CAL-27 [1]): Active
Activity (CAL-27 [4]): Dose-dependent-effect; Showed Effective Suppression
inhibition at 0.1 µM (CAL-27 [5]): 81.5%
inhibition at 0.1 µM [6]: 69.4%
inhibition at 0.1 µM [7]: 65.5%
inhibition at 0.1 µM (SCC-9 [8]): 76.3%
inhibition at 0.1 µM (SCC-25 [9]): 64.7%
inhibition at 72 h, 0.1 µM [10]: 23.5%
IC50 (CAL-27 [11]): 4.37 nM
IC50 [12]: 9.34 nM
IC50 [13]: 77.8 nM
IC50 (SCC-9 [14]): 5.5 nM
IC50 (SCC-25 [15]): 7.44 nM
IC50 at 72 h [16]: > 10000 nM
IC50 (MDA-MB-231): 48.3 nM
IC50 (SK-BR-3): 2.4 nM
IC50 (K562): 2.8 nM
IC50 (Jurkat): 166 nM
IC50 (KYSE-510): 10.9 nM
IC50 (PANC-1): 405 nM
IC50 (ASPC1): 283 nM
IC50 (HepG2): 20.7 nM
IC50 (SNU-449): 544 nM
IC50 (SNU-182): 45.5 nM
IC50 [17]: 298 nM
Activity (CAL-27 [18]): Active
Activity (CAL-27 [19]): Dose-dependent-effect; Showed Effective Suppression
Activity (CAL-27 [20]): 0.11%
Activity (CAL-27 [21]): 3%
Activity (CAL-27 [22]): 4.68%
Activity (CAL-27 [23]): 9.61%
Activity (CAL-27 [33]): Active
inhibition in vivo at 0.6 mg/kg (CAL-27 [31]): 23.3%
Activity (CAL-27 [32]): 46%
